Measurements as given in patent US8883798B2, “Pyrimidine compounds inhibiting the formation of nitric oxide and prostaglandin E2, method of production thereof and use thereof” (Ustav Organicke Chemie a Biochemie Akademie Ved CR, V.V.I., priority 2011, dated 2014).

Assays:
peritoneal cells of mice = experiment: Cell viability of mouse peritoneal cells (WST-1 kit); format: cell-based; conditions: Table 3A, substance 50 μmol·l^−1, 24 h
Outline: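 C57BL/6 mouse peritoneal cells (1×10^6/mL) cultured 24 h with compounds at 50 μmol·l^−1. Viability read with WST-1 tetrazolium salt and expressed as percent of untreated control cells (100%).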

[1] = tested on: acute experimental colitis in mice; experiment: Acute experimental colitis induced in mice by dextran sulphate sodium; format: in vivo, mice BALB/c; conditions: for Therapeutical effect compared with 6-TG: acute colitis, approximately 10 mg/kg; for Course of induced acute experimental colitis: approximately 10 mg/kg by stomach probe for seven days; for Protection from severe forms of acute experimental colitis: daily oral doses of 2.5 mg/kg or 10 mg/kg
Method: The compounds tested were dissolved in 0.5% methylcellulose (MC, Bio-test s.r.o., Konárovice, Czech Republic; Lot: 050510BT) to acquire a final concentration of 2 mg/ml (ca 10 mg/kg). To achieve homogeneity of the suspensions, the substances in MC were disintegrated by ultrasound (sonicated; 20 s, λ=0.1 μm). Fresh suspensions were prepared every day.
The female mice of strain BALB/c at 13 weeks old were acquired from the breeding of the Institute of Physiology of the ASCR, v.v.i. Colitis was induced in them by administering a 3% solution (weight/volume) of sodium dextran sulphate (DSS, mol. weight 36-50 kDa; MP Biomedicals, Inc.) in drinking water for a period of seven days [Gastroenterology 98, 694-7, 1990]. Beginning on Day 1 of DSS administration, also a dose of the tested compound, dissolved in 100 μl MC (only a dose of methylcellulose in the case of the control animals), was administered for seven days by stomach probe.
The severity of the colitis was assessed on the last day of the experiment by scoring the clinical activity, histological parameters and measuring the length of the intestine.
The entire intestine was removed post mortem, without tightening it was placed on a ruler and measured. Shortening of the intestine is an indirect marker of infection (the shorter the intestine, the more serious the infection).
The points of the clinical activity are the sum of the individual assessments from 0 to 4 and were calculated using the following parameters: reduction of body weight (none=0 points, reduction by 1 to 5%=1 point, by 5-10%=2 points, by 10-20%=3 points, by 20%=4 points), consistency of the feces (solid=0 points; not solid, but not sticking to the anus=2 points; liquid, sticking to the anus=4 points) and bleeding (none=0 points, positive Guajak reaction=2 body, strong bleeding=4 points). This point assessment was totaled and divided by three to acquire the overall index of the activity of the disease, which was in a range from 0.0 (a healthy individual) to 4.0 (maximum activity of colitis) as described by Cooper et al. [Lab. Invest. 69, 238-49, 1993].
The descending colon was fixed in a buffered solution of 4% formaldehyde and poured into paraffin for the histological assessment. The sections were stained in hematoxylin/eosin. For every sample, four cross cuts were tested, which had been separated from one another by sections of a length of […]. The histological assessment was made for every cut by two pathologists in blind order, which provided an assessment combining the level of the infiltration of leukocytes into the layer of the lamia propria and into the submucosa along with the extent of the damage of the mucous membrane (see Table 1). The overall assessment is the average of the evaluation of the four sections, which was in a range from 0 (no signs of colitis) to 3 (severe colitis).
The differences in the intestinal length, DAI (disease activity index) and histological assessment of multiple groups were compared with the control group (MC/DSS) using a one-way analysis of the differences with a Dunnett test of multiple comparison. The differences were considered as statistically significant at P<0.05.
Compounds 28 and 51 were suspended in 0.5% methylcellulose (MC, Bio-test s.r.o., Konárovice, Czech Republic, Lot: 050510BT) to a concentration of 2 mg/ml (approximately 10 mg/kg). Sterile 0.5% MC was used as a placebo and a dose of 40 mg/each administration of 6-thioguanine (6TG) in 0.5% MC as a positive control. The administered suspensions were prepared freshly […].

[2] = rat, in vivo, po, 800 mg/kg
Method: 28. The plasma samples were taken in intervals during 48 hours. […] Plasma samples were prepared by centrifugation (3500 rpm, 10 min, 4° C.), transferred into appropriately labelled and sealed Eppendorf tubes and frozen at −20° C. until transportation to analyses. The plasma was split into two aliquots. All samples were transported in a sufficient amount of dry ice to the analytical laboratory.
The analysis was performed using HPLC/MS/MS method with the use of internal deuterated standard and precipitation separation method. The analytical method used 50 μl of plasma sample for each analysis. The method was validated for concentration as low as 10.0 ng of the compound in 1 ml of plasma. A weighted liner regression was evaluated over the concentration range from 10.0-10 000.0 ng of the compound in 1 ml of plasma. Spiked plasma samples were precipitated with the solution of internal standard. The sample supernatant was analyzed on HPL/MS/MS system TSQ-03.

HUVEC = HUVEC cell proliferation (XTT assay); format: cell-based, human; conditions: 10 to 50 μmol/L, 8 hours
[3] = tested on: adjuvant arthritis in sewer rats; experiment: Adjuvant arthritis in female Lewis sewer rats (Freund's complete adjuvant); format: in vivo, sewer rats of the inbred strain Lewis; conditions: 50 mg/kg orally, Day 9 to Day 16; versus methylcellulose group
[4] = tested on: human umbilical vein endothelial cells (HUVEC); experiment: Tube formation assay of HUVEC on Matrigel (in vitro angiogenesis); format: cell-based; conditions: 8 h
Source text: This so called “Tube Formation Assay” is a method based on the ability of endothelial cells to form capillary-like tubular structures when cultured on Matrigel™ (a gel of basement membrane extract—their natural substrate). The process of capillary-like tube formation includes endothelial cell attachment, migration, and differentiation into tubules. In this experiment, treatment with tested compounds started at the time of seeding HUVEC onto Matrigel and the extent of tubule development was observed after an 8 h time period. Disruption of tube formation was then assessed through observation of the tubular network and direct comparison to solvent-only controls. The quantitative and qualitative measurement of tubular network complexity was performed using web-based S.CORE imaging software and expressed by means of number of tubes, their total length, quality, number of branching points, etc. All these parameters were integrated into “tube formation index” which corresponds to the degree of complexity of tubular network. […] At a 10 μmol/L concentration, compound 23 reduced tube formation by >90%. […] Apoptosis in HUVECs (at ˜70% confluency) treated with or without varying concentrations (relevant for the tube formation assay) of tested substances was assessed by a combination of Annexin V and JC-1 staining. After 8 h of these treatments, cells were collected, and the cell population undergoing apoptosis was identified by double-parameter flow cytometry using annexin V and the vital dye propidium iodide (PI). Mitochondrial membrane potential in treated endothelial cells was measured using the lypophilic probe JC-1, which aggregates in healthy mitochondria and fluoresces red, but diffuses in the cytoplasm and fluoresces green upon mitochondrial damage. In both cases, quantification of apoptotic cells were conducted in BD FACSDiva software.

Structure (SMILES) | Cell viability in % of the controls (peritoneal cells of mice) | Therapeutical effect compared with 6-TG [1] | Course of induced acute experimental colitis [1] | Protection from severe forms of acute experimental colitis [1] | Toxic effect in animals [2] | HUVEC cell proliferation (HUVEC) | Severity of adjuvant arthritis (size of contralateral paws) [3] | Effect on tube formation ([4]; 10 μmol/L) | Incomplete tube formation ([4]; 25 μmol/L) [%] | Capillary tube formation [4]
CCCCc1c(Cl)nc(N)nc1Cl [Substance 28] | 100.42 ± 5.77 % of the controls | minimally equal with the effect of 6-TG | statistically significant reduction of the course of the induced (severe form) experimental colitis | protect mice from the severe forms of acute experimental colitis | No apparent toxic effect was observed | – | – | – | – | –
CCCCc1c(Cl)nc(NC=O)nc1Cl [Substance 51] | 92.15 ± 9.90 % of the controls | minimally equal with the effect of 6-TG | statistically significant reduction of the course of the induced (severe form) experimental colitis | protect mice from the severe forms of acute experimental colitis | – | did not influence HUVEC cell proliferation | distinctive (statistically significant) reduction of the severity of the illness | only limited effect | ~6 | inhibited capillary tube formation in a dose dependent manner
